Assay results published in the supplement of paper PMC10627819.

Legend:
Assay in all cases: fitness (endpoint OD595 vs no drug) (fraction); higher = more growth
B. subtilis 168 = system: B. subtilis 168
Procedure, shortened: (§1)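 With the first reading as background, OD595 was measured every 30 min for 14 h in 384-well plates kept at 37 °C and inoculated at OD595 0.01. TSB, LB Lennox or CY was the medium. Fitness is the optical density at the transition into stationary phase divided by the robust mean of no-drug control wells, with a cap of 1.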

S. aureus Newman = conditions: one replicate
Procedure, shortened: as §1

S. pneumoniae D39V = system: S. pneumoniae D39V
Procedure, shortened: as §1
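Also: OD595 on entry to stationary phase over no-drug wells; at most 1.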

O=C(O)[C@H]1/C(=C/CO)O[C@@H]2CC(=O)N21 [Clavulanic acid] + CCN(CC)CCOC(=O)c1ccc(N)cc1 [Procaine]
fitness
Conditions | partner 85.5 µg/mL | partner 171 µg/mL | partner 342 µg/mL
B. subtilis 168, first compound 1.5 µg/mL | 0.876 | 0.92 | 0.902
B. subtilis 168, first compound 3 µg/mL | 0.839 | 0.831 | 0.795
B. subtilis 168, first compound 6 µg/mL | 0.746 | 0.739 | 0.672
S. aureus Newman, first compound 0.03125 µg/mL | 0.948 | 0.929 | 0.963
S. aureus Newman, first compound 0.0625 µg/mL | 0.982 | ≥ 1 | ≥ 1
S. aureus Newman, first compound 0.125 µg/mL | 0.872 | 0.852 | 0.894
S. pneumoniae D39V, first compound 0.5 µg/mL | 0.994 | ≥ 1 | ≥ 1
S. pneumoniae D39V, first compound 1 µg/mL | 0.957 | 0.977 | 0.934
S. pneumoniae D39V, first compound 2 µg/mL | 0.832 | 0.912 | 0.795

O=C(O)[C@H]1/C(=C/CO)O[C@@H]2CC(=O)N21 [Clavulanic acid] + CN1C2=CC=CC=C2N=C3C1=CC=CC3=O [Pyocyanin]
fitness
Conditions | partner 0.65 µg/mL | partner 1.25 µg/mL | partner 1.3 µg/mL | partner 2.5 µg/mL | partner 5 µg/mL
B. subtilis 168, first compound 1.5 µg/mL | – | 0.91 | – | 0.837 | 0.678
B. subtilis 168, first compound 3 µg/mL | – | 0.798 | – | 0.818 | 0.665
B. subtilis 168, first compound 6 µg/mL | – | 0.748 | – | 0.719 | 0.604
S. aureus Newman, first compound 0.03125 µg/mL | – | 0.884 | – | 0.898 | 0.723
S. aureus Newman, first compound 0.0625 µg/mL | – | 0.934 | – | 0.87 | 0.785
S. aureus Newman, first compound 0.125 µg/mL | – | 0.855 | – | 0.827 | 0.74
S. pneumoniae D39V, first compound 0.5 µg/mL | ≥ 1 | – | 0.765 | – | –
S. pneumoniae D39V, first compound 1 µg/mL | 0.94 | – | 0.791 | – | –
S. pneumoniae D39V, first compound 2 µg/mL | 0.861 | – | 0.581 | – | –

O=C(O)[C@H]1/C(=C/CO)O[C@@H]2CC(=O)N21 [Clavulanic acid] + CN(C)c1cc(NC(=O)CNC(C)(C)C)c(O)c2c1C[C@H]1C[C@H]3[C@H](N(C)C)C(O)=C(C(N)=O)C(=O)[C@@]3(O)C(O)=C1C2=O [Tigecycline]
Conditions | fitness
B. subtilis 168, first compound 1.5 µg/mL, partner 0.039 µg/mL | 0.98
B. subtilis 168, first compound 1.5 µg/mL, partner 0.078 µg/mL | 0.919
B. subtilis 168, first compound 1.5 µg/mL, partner 0.156 µg/mL | 0.884
B. subtilis 168, first compound 3 µg/mL, partner 0.039 µg/mL | 0.888
B. subtilis 168, first compound 3 µg/mL, partner 0.078 µg/mL | 0.899
B. subtilis 168, first compound 3 µg/mL, partner 0.156 µg/mL | 0.889
B. subtilis 168, first compound 6 µg/mL, partner 0.039 µg/mL | 0.82
B. subtilis 168, first compound 6 µg/mL, partner 0.078 µg/mL | 0.796
B. subtilis 168, first compound 6 µg/mL, partner 0.156 µg/mL | 0.79
S. aureus Newman, first compound 0.03125 µg/mL, partner 0.039 µg/mL | 0.952
S. aureus Newman, first compound 0.03125 µg/mL, partner 0.078 µg/mL | 0.933
S. aureus Newman, first compound 0.03125 µg/mL, partner 0.156 µg/mL | 0.96
S. aureus Newman, first compound 0.0625 µg/mL, partner 0.039 µg/mL | 0.987
S. aureus Newman, first compound 0.0625 µg/mL, partner 0.078 µg/mL | 1
S. aureus Newman, first compound 0.0625 µg/mL, partner 0.156 µg/mL | 0.971
S. aureus Newman, first compound 0.125 µg/mL, partner 0.039 µg/mL | 0.919
S. aureus Newman, first compound 0.125 µg/mL, partner 0.078 µg/mL | 0.884
S. aureus Newman, first compound 0.125 µg/mL, partner 0.156 µg/mL | 0.898
S. pneumoniae D39V, first compound 0.5 µg/mL, partner 0.325 µg/mL | ≥ 1
S. pneumoniae D39V, first compound 0.5 µg/mL, partner 0.65 µg/mL | 0.965
S. pneumoniae D39V, first compound 0.5 µg/mL, partner 1.3 µg/mL | 0.931
S. pneumoniae D39V, first compound 0.5 µg/mL, partner 2.6 µg/mL | 0.866
S. pneumoniae D39V, first compound 1 µg/mL, partner 0.325 µg/mL | 0.908
S. pneumoniae D39V, first compound 1 µg/mL, partner 0.65 µg/mL | 0.889
S. pneumoniae D39V, first compound 1 µg/mL, partner 1.3 µg/mL | 0.877
S. pneumoniae D39V, first compound 1 µg/mL, partner 2.6 µg/mL | 0.814
S. pneumoniae D39V, first compound 2 µg/mL, partner 0.325 µg/mL | 0.717
S. pneumoniae D39V, first compound 2 µg/mL, partner 0.65 µg/mL | 0.782
S. pneumoniae D39V, first compound 2 µg/mL, partner 1.3 µg/mL | 0.815
S. pneumoniae D39V, first compound 2 µg/mL, partner 2.6 µg/mL | 0.755

fitness, B. subtilis 168, one replicate
Conditions | first compound 1.5 µg/mL | first compound 3 µg/mL | first compound 6 µg/mL
partner 0.125 µg/mL | 0.956 | 0.952 | 0.814
partner 0.25 µg/mL | 0.863 | 0.928 | 0.821
partner 0.5 µg/mL | 0.866 | 0.865 | 0.765

O=C(O)[C@H]1/C(=C/CO)O[C@@H]2CC(=O)N21 [Clavulanic acid] + CN(N=O)C(=O)N[C@@H](C=O)[C@@H](O)[C@H](O)[C@H](O)CO [Streptozotocin]
fitness
Conditions | partner 0.15 µg/mL | partner 0.3 µg/mL | partner 0.6 µg/mL | partner 1.2 µg/mL | partner 2.4 µg/mL | partner 4.8 µg/mL
B. subtilis 168, first compound 1.5 µg/mL | 0.914 | 0.898 | 0.911 | – | – | –
B. subtilis 168, first compound 3 µg/mL | 0.861 | 0.848 | 0.929 | – | – | –
B. subtilis 168, first compound 6 µg/mL | 0.779 | 0.772 | 0.75 | – | – | –
S. aureus Newman, first compound 0.03125 µg/mL | 0.937 | 0.91 | 0.667 | – | – | –
S. aureus Newman, first compound 0.0625 µg/mL | 0.977 | 0.911 | 0.761 | – | – | –
S. aureus Newman, first compound 0.125 µg/mL | 0.923 | 0.865 | 0.655 | – | – | –
S. pneumoniae D39V, first compound 0.5 µg/mL | – | – | – | 0.937 | 0.979 | 0.944
S. pneumoniae D39V, first compound 1 µg/mL | – | – | – | 0.882 | 0.947 | 0.864
S. pneumoniae D39V, first compound 2 µg/mL | – | – | – | 0.784 | 0.876 | 0.747

O=C(O)[C@H]1/C(=C/CO)O[C@@H]2CC(=O)N21 [Clavulanic acid] + CN[C@@H]1[C@H](O)[C@H](NC)[C@H]2O[C@@]3(O)C(=O)C[C@@H](C)O[C@H]3O[C@@H]2[C@H]1O [Spectinomycin]
fitness
Conditions | partner 2 µg/mL | partner 4 µg/mL | partner 8 µg/mL | partner 16 µg/mL
B. subtilis 168, first compound 1.5 µg/mL | 0.892 | 0.929 | 0.934 | –
B. subtilis 168, first compound 3 µg/mL | 0.951 | 0.868 | 0.867 | –
B. subtilis 168, first compound 6 µg/mL | 0.832 | 0.755 | 0.72 | –
S. aureus Newman, first compound 0.03125 µg/mL | – | 0.961 | 0.945 | 0.92
S. aureus Newman, first compound 0.0625 µg/mL | – | 0.922 | 0.945 | 0.885
S. aureus Newman, first compound 0.125 µg/mL | – | 0.916 | 0.958 | 0.905
S. pneumoniae D39V, first compound 0.5 µg/mL | – | 0.916 | 0.852 | 0.658
S. pneumoniae D39V, first compound 1 µg/mL | – | 0.809 | 0.845 | 0.621
S. pneumoniae D39V, first compound 2 µg/mL | – | 0.79 | 0.749 | 0.447
